Assay results taken from patent US20250093263A1, “FRET-BASED ASSAYS” (The General Hospital Corporation, priority 2021, published 2025).
Where “and” joins values, the source holds several entries; their conditions need not be identical. Identical values can stand only once. Counter-ions that a name gives are not always drawn. Like-named read-outs stand apart in the source and are kept apart here. Marks after values point to notes of the source that are not given here. Each block holds one compound with its values, some of them ahead of it.

Columns and labels:
[1] = target: T1, PfcProRS (Plasmodium falciparum, UniProt Q8I5R7); test: biochemical; assay type: binding
T1 construct: made in house; host or cells: SoluBL-21 E. coli

[2] = test system: P. falciparum Dd2-2D4; test: P. falciparum asexual blood stage growth assay, wild type; conditions: for EC50: read-out: Dd2 (EC50 [nM]) wt; for percent growth at 10 μM: Dd2 wt, shown because compound had <50% growth inhibition
[3] = test system: halofuginone-induced P. falciparum (elevated proline homeostasis); test: P. falciparum asexual blood stage growth assay, halofuginone-induced parasites; conditions: for EC50: Plasmodium falciparum, DD2, 72 h, read-out: Dd2 (EC50 [nM]) Halofuginone-induced; for percent growth at 10 μM: halofuginone-induced, shown because compound had <50% growth inhibition
[4] = target: T2, HsProRS (Homo sapiens, UniProt P07814); test: TR-FRET ProRS ligand displacement / saturation binding assay, HsProRS; conditions: for fold less tightly bound to HT-HsProRS relative to HT-PfcProRS: tracer KD ratio
T2 construct: made in house; host or cells: SoluBL-21 E. coli
T2 sequence (P07814 996-1512): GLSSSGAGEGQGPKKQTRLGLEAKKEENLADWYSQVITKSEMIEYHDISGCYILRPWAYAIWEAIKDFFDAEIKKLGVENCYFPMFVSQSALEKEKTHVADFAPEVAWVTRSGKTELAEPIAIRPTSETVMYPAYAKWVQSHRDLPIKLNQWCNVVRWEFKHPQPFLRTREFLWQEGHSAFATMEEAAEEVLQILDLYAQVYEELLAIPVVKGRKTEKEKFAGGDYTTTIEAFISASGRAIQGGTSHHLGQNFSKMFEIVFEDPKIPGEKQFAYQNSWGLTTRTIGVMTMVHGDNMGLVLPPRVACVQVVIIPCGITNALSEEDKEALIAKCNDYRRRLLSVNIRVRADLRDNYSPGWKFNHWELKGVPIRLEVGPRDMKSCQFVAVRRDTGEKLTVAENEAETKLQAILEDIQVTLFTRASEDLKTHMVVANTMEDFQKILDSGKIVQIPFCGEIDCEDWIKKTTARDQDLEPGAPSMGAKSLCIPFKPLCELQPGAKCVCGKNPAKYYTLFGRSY

[5] = target: T3, Keap1 (His/GST) (Homo sapiens, UniProt Q14145); test: Keap1 TR-FRET Assay 3 (CDDO-FITC/Tb-Anti-6xHis); assay type: binding
[6] = target: T4, WT Keap1 (tag-free, full-length) (Homo sapiens, UniProt Q14145); test: biochemical
[7] = target: T4, WT Keap1 (tag-free, full-length); test: biochemical; conditions: read-out: Assay 1: % at 100
[8] = target: T3, Keap1 (His/GST); test: biochemical
[9] = target: T5, BRD4 in MDA-MB-231 cells (Homo sapiens, UniProt O60885); test: TR-FRET BRD4 quantification after degrader treatment, MDA-MB-231 cells; assay type: cell-based; conditions: for rescue of CS-JQ1-mediated BRD4 degradation: 250 nM CS-JQ1, 1 μM rescue compound or 10 μM JQ1; for rescue of dBET6-induced BRD4 degradation: 250 nM dBET6, 1 μM rescue compound or 10 μM JQ1, 5 h
T5 construct: TR-FRET-based quantification of BRD4 levels in unmodified cell lines after degrader treatment; endogenous in cells; host or cells: MDA-MB-231

[10] = target: T6, BRD4 in MCF7 cells (Homo sapiens, UniProt O60885); test: TR-FRET BRD4 quantification after degrader treatment, MCF7 cells; assay type: cell-based; conditions: for rescue of CS-JQ1-mediated BRD4 degradation: 250 nM CS-JQ1, 1 μM rescue compound or 10 μM JQ1; for rescue of dBET6-induced BRD4 degradation: 250 nM dBET6, 1 μM rescue compound or 10 μM JQ1, 5 h
T6 construct: TR-FRET-based quantification of BRD4 levels in unmodified cell lines after degrader treatment; endogenous in cells; host or cells: MCF7

[11] = PfcProRS (KD [nM]) +proline, 100 μM proline
[12] = PfcProRS (KD [nM]) −, absence of substrates
[13] = Plasmodium falciparum, DD2, 72 h
[14] = dose-titration of tracer on HT-HsProRS, read-out: HsProRS KD of tracers
[15] = absence of substrates, read-out: HsProRS (KD [nM]) −
[16] = read-out: HsProRS (KD [nM]) +proline, 100 μM proline
[17] = PfcProRS KD, substrate condition not given
[18] = substrate condition not given, read-out: HsProRS KD
[19] = dose-titration of ATP and proline against tracer MAT379, read-out: PfcProRS KD of substrates

T3 sequence (Q14145 whole entry): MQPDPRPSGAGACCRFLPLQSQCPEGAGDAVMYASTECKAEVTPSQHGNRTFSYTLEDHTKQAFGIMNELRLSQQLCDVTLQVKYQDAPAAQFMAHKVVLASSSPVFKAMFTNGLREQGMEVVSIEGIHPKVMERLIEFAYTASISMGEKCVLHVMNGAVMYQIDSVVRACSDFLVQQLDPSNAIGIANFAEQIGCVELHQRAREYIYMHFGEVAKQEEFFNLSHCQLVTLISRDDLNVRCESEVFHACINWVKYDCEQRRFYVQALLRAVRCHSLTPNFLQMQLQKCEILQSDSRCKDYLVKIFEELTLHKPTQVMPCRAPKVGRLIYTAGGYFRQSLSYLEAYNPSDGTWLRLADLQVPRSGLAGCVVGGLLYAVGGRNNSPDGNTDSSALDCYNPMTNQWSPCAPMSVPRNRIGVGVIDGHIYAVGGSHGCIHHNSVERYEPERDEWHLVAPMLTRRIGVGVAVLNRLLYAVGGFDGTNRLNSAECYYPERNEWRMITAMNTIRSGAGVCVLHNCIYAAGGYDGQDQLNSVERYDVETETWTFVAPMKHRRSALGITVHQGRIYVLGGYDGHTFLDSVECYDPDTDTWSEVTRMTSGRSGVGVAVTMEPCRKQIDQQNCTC
T4 sequence (Q14145 whole entry): as above
T1 sequence (Q8I5R7 249-746): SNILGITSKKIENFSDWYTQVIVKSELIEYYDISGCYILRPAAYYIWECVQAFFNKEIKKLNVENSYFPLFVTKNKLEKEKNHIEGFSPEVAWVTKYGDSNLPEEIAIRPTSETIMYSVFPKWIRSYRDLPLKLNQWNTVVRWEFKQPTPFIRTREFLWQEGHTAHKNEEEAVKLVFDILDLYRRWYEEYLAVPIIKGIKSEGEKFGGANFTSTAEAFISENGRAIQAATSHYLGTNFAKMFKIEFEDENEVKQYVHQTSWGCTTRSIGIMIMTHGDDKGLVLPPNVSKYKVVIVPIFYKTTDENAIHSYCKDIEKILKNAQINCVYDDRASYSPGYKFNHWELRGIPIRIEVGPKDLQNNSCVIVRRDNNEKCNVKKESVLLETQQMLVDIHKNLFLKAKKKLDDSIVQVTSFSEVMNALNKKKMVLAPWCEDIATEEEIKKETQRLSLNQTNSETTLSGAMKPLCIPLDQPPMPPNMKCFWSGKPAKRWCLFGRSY

Structure (SMILES): O=C(CC1NCCCC1O)Cn1cnc2cc(Br)c(Cl)cc2c1=O (stereo not drawn) [halofuginone, reference compound]
fold increased affinity in the presence of ATP ([1]; 500 μM ATP vs 0 μM ATP): > 6,000 fold

Structure (SMILES): CC(C)(C)OC(=O)NC1CCN(C(=O)Nc2nccnc2C(=O)NC2Cc3ccccc3C2)CC1 [Compound 7, tert-butyl (1-((3-((2,3-dihydro-1H-inden-2-yl)carbamoyl)pyrazin-2-yl)carbamoyl)piperidin-4-yl)carbamate]
Kd [1, 11]: 13.2 nM | Kd [1, 12]: 13.1 nM | EC50 [2, 13]: 90.6 nM | EC50 [3]: 2170 nM

Structure (SMILES): O=C(CCCCCNC(=S)Nc1ccc(-c2c3ccc(=O)cc-3oc3cc(O)ccc23)c(C(=O)O)c1)NC1CCN(C(=O)Nc2nccnc2C(=O)NC2Cc3ccccc3C2)CC1 [MAT379]
koff ([1]; 10-fold dilution of 100 nM HT-PfcProRS and 560 nM MAT379, read-out: first-order dissociation rate constant (koff)): < 0.00267 s⁻¹ | Kd ([1]; absence of substrates, read-out: PfcProRS (KD [nM]) −): 100 nM | Kd [4, 14]: 1700 nM | fold less tightly bound to HT-HsProRS relative to HT-PfcProRS [4]: 17 fold and > 15 fold

IC50 [5]: 0.011 µM | IC50 [6]: 0.024 µM | Kd [6]: 0.013 µM | inhibition at 100 µM [7]: < 10% | IC50 [8]: 103 µM
Structure (SMILES): COC(=O)[C@]12CCC(C)(C)C[C@H]1[C@H]1C(=O)C=C3[C@@]4(C)C=C(C#N)C(=O)C(C)(C)[C@@H]4CC[C@@]3(C)[C@]1(C)CC2 [CDDO-Me, bardoxolone methyl]

Structure (SMILES): CC(C)(C)OC(=O)N1CCC[C@H]1C(=O)NCC1CCN(C(=O)Nc2nccnc2C(=O)NC2Cc3ccccc3C2)CC1 [Compound 32, tert-butyl (S)-2-(((1-((3-((2,3-dihydro-1H-inden-2-yl)Carbamoyl)pyrazin-2-yl)carbamoyl)piperidin-4-yl)methyl)carbamoyl)pyrrolidine-1-carboxylate]
Kd [1, 11]: 5.35 nM | Kd [1, 12]: 6.67 nM | EC50 [2, 13]: 63.2 nM | Kd [4, 15]: 72.1 nM | Kd [4, 16]: 270 nM | EC50 [3]: 1530 nM

Structure (SMILES): O=C(CCCCCNC(=S)Nc1ccc(C(=O)O)c(-c2c3ccc(=O)cc-3oc3cc(O)ccc23)c1)NCC1CCN(C(=O)Nc2nccnc2C(=O)NC2Cc3ccccc3C2)CC1 [MAT425, 4-(3-(6-(((1-((3-((2,3-dihydro-1H-inden-2-yl)carbamoyl)pyrazin-2-yl)carbamoyl)piperidin-4-yl)methyl)amino)-6-oxohexyl)thioureido)-2-(6-hydroxy-3-oxo-3H-xanthen-9-yl)benzoic acid]
Kd [1, 12]: 199 nM | Kd [4, 14]: > 10000 nM | fold less tightly bound to HT-HsProRS relative to HT-PfcProRS [4]: > 50 fold

Structure (SMILES): Nc1ncnc2c1ncn2[C@@H]1O[C@H](COS(=O)(=O)NC(=O)[C@@H]2CCCN2)[C@@H](O)[C@H]1O [ProSA, prolyl-sulfamoyl adenosine, reference compound]
EC50 ([2]; wild-type Dd2-2D4, 72 h growth): 151 nM

rescue of CS-JQ1-mediated BRD4 degradation [9]: substantially rescued | rescue of dBET6-induced BRD4 degradation [9]: attenuated | rescue of CS-JQ1-mediated BRD4 degradation [10]: substantially rescued | rescue of dBET6-induced BRD4 degradation [10]: attenuated
Structure (SMILES): NS(=O)(=O)OC[C@@H]1C[C@@H](n2ccc3c(N[C@H]4CCc5ccccc54)ncnc32)C[C@@H]1O [MLN4924]

Structure (SMILES): CC[C@H](C)[C@H](N)C(=O)NS(=O)(=O)NC[C@H]1O[C@@H](n2cnc3c(N)ncnc32)[C@H](O)[C@@H]1O [IleSNA]
IC50 ([2]; Plasmodium falciparum, DD2, read-out: ABS IC50): 0.00119 µM

Structure (SMILES): NCCOCCOCCCCCCN(C[C@H]1O[C@@H](n2cnc3c(N)ncnc32)[C@H](O)[C@@H]1O)S(=O)(=O)NC(=O)[C@@H]1CCCN1 [MAT556, (S)-N-(N-(((2R,3S,4R,5R)-5-(6-amino-9H-purin-9-yl)-3,4-dihydroxytetrahydrofuran-2-yl)methyl)-N-(6-(2-(2-aminoethoxy)ethoxy)hexyl)sulfamoyl)pyrrolidine-2-carboxamide]
Kd [1, 17]: 195 nM | Kd [4, 18]: 33.7 nM

Structure (SMILES): CC(C)(C)OC(=O)N1CCC[C@H]1C(=O)NC1CCN(C(=O)Nc2nccnc2C(=O)NC2Cc3ccccc3C2)CC1 [Compound 31, tert-butyl (S)-2-((1-((3-((2,3-dihydro-1H-inden-2-yl)carbamoyl)pyrazin-2-yl)carbamoyl)piperidin-4-yl)carbamoyl)pyrrolidine-1-carboxylate]
Kd [1, 11]: 1990 nM | Kd [1, 12]: 2300 nM | percent growth at 10 μM [2]: 102%† | Kd [4]: > 5000 nM | percent growth at 10 μM [3]: 98%†

Structure (SMILES): O=C(O)[C@@H]1CCCN1 [proline]
Kd [1, 19]: 457000 nM | Kd ([4]; read-out: HsProRS KD of proline, competition with MAT379): 67100 nM

Structure (SMILES): Nc1ncnc2c1ncn2[C@@H]1O[C@H](CNS(=O)(=O)NC(=O)[C@@H]2CCCN2)[C@@H](O)[C@H]1O [ProSNA, (S)-N-(N-(((2R,3S,4R,5R)-5-(6-amino-9H-purin-9-yl)-3,4-dihydroxytetrahydrofuran-2-yl)methyl)sulfamoyl)pyrrolidine-2-carboxamide]
Kd [1, 17]: < 1 nM | EC50 [2, 13]: 172 nM | Kd [4, 18]: < 1 nM

rescue of CS-JQ1-mediated BRD4 degradation [9]: substantially rescued | rescue of dBET6-induced BRD4 degradation [9]: attenuated | rescue of CS-JQ1-mediated BRD4 degradation [10]: substantially rescued | rescue of dBET6-induced BRD4 degradation [10]: attenuated
Structure (SMILES): CC(C)C[C@H](NC(=O)[C@H](Cc1ccccc1)NC(=O)c1cnccn1)B(O)O [bortezomib]

IC50 [5]: 64.8 µM | IC50 [6]: 129 µM | Kd [6]: 67.4 µM | inhibition at 100 µM [7]: < 5% | IC50 [8]: 266 µM
Structure (SMILES): COC(=O)/C=C/C(=O)OC [DMF, dimethyl fumarate]

IC50 [5]: 3.39 µM | IC50 [8]: 24.6 µM
Structure (SMILES): COC1=CC(=O)C(O)=C/C1=C\C=C\c1ccccc1 [OBT, obtusaquinone]

rescue of CS-JQ1-mediated BRD4 degradation [9]: substantially rescued | rescue of dBET6-induced BRD4 degradation [9]: attenuated | rescue of CS-JQ1-mediated BRD4 degradation [10]: substantially rescued | rescue of dBET6-induced BRD4 degradation [10]: attenuated
Structure (SMILES): NS(=O)(=O)OC[C@H]1C[C@@H](Nc2ccnc3cc(-c4cccc(SC(F)(F)F)c4)nn23)[C@H](O)[C@@H]1O [MLN7243]

IC50 [5]: 0.004 µM | IC50 [8]: 224 µM
Structure (SMILES): CC1(C)CC[C@]2(C(=O)O)CC[C@]3(C)[C@H](C(=O)C=C4[C@@]5(C)C=C(C#N)C(=O)C(C)(C)[C@@H]5CC[C@]43C)[C@@H]2C1 [CDDO, (4aS,6aR,6bS,8aR,12aS,14aR,14bS)-11-cyano-2,2,6a,6b,9,9,12a-heptamethyl-10,14.dioxo-1,3,4,5,6,6a,6b,7,8,8a,9,10,12a,14,14a,14b-hexadecahydropicene-4a(2H)-carboxylic acid]

Structure (SMILES): O=C(NC1Cc2ccccc2C1)c1nccnc1NC(=O)N1CCC(CNC(=O)[C@@H]2CCCN2)CC1 [MAT345, (S)-N-(2,3-dihydro-1H-inden-2-y)-3-(4-((pyrrolidine-2-carboxamido)methyl)piperidine-1-carboxamido)pyrazine-2-carboxamide]
Kd [1, 11]: 35.9 nM | Kd [1, 12]: 39.8 nM | EC50 [2, 13]: 249 nM | Kd [4, 15]: 140 nM | Kd [4, 16]: 282 nM | EC50 [3]: 7210 nM

Kd [1, 19]: 892000 nM
Structure (SMILES): Nc1ncnc2c1ncn2[C@@H]1O[C@H](COP(=O)(O)OP(=O)(O)OP(=O)(O)O)[C@@H](O)[C@H]1O [ATP]

Structure (SMILES): O=C(CCCCCNC(=S)Nc1ccc(-c2c3ccc(=O)cc-3oc3cc(O)ccc23)c(C(=O)O)c1)NCCCCCC(=O)NC1CCN(C(=O)Nc2nccnc2C(=O)NC2Cc3ccccc3C2)CC1 [MAT422]
Kd ([1]; KD, PfcProRS of alternative tracer, tracer binding, conditions not stated): 1280 nM | Kd [4, 14]: > 4000 nM

Structure (SMILES): O=C(NC1Cc2ccccc2C1)c1nccnc1NC(=O)N1CCC(NC(=O)[C@@H]2CCCN2)CC1 [MAT334, (S)-N-(2,3-dihydro-1H-inden-2-yl)-3-(4-(pyrrolidine-2-carboxamido)piperidine-1-carboxamido)pyrazine-2-carboxamide]
Kd [1, 11]: 660 nM | Kd [1, 12]: 1380 nM | percent growth at 10 μM [2]: 76%† | Kd [4, 16]: 2130 nM | percent growth at 10 μM [3]: 59%†
